Starred links: 1 amine or outer side, 2 acyl side, 3 side chain; linkers in the order of their positions; H or OH if unused. Positions of bridges follow the written chain, without caps; N, C: chain ends. Non-standard residues stand in square brackets, D forms with d. Residues, ends and D or L forms follow the SMILES beside them. Groups on a side chain read outwards from the residue. *: point of attachment. Phe(3-CH2NH2) = O=C([C@H](Cc1cccc(CN[*:3])c1)N[*:1])[*:2]; Ala(imidazol-2-yl) = N[C@@H](Cc1ncc[nH]1)C(=O)O; Trp(5-F) = N[C@@H](Cc1c[nH]c2ccc(F)cc12)C(=O)O; Phe(4-CH2NH2) = NCc1ccc(C[C@H](N)C(=O)O)cc1; X3 = O=C(CCSCc1cc(F)cc(CSCCN[*:1])c1)[*:2]; Pro(cis-4-F) = O=C(O)[C@@H]1C[C@H](F)CN1; γGlu = O=C(O)[C@H](CCC(=O)[*:2])N[*:1]; mXylylene = c1cc(C[*:1])cc(C[*:2])c1; AEF = NCCOc1ccc(C[C@H](N)C(=O)O)cc1; Adipoyl = O=C(CCCCC(=O)[*:2])[*:1]; Glutaryl = O=C(CCCC(=O)[*:2])[*:1]; Lys(Me2) = CN(C)CCCC[C@H](N)C(=O)O; Palmitoyl = CCCCCCCCCCCCCCCC(=O)*; PEG4 = NCCOCCOCCOCCOCCC(=O)O; αMeP = C[C@@]1(C(=O)O)CCCN1; Aun = NCCCCCCCCCCC(=O)O; AEEA = NCCOCCOCC(=O)O; Propionyl = CCC(=O)*; Mpa = O=C(O)CCS
Columns and labels:
PCSK9 [1] = molecular target: T1, PCSK9 (Homo sapiens (Human), UniProt Q8NBP7); experiment: PCSK9 Alexa FRET Standard assay (displacement of AlexaFluor647 tagged cyclic peptide Reagent A); type: binding; conditions: PCSK9 Alexa FRET Standard assay, 0.5 nM PCSK9, 20 nM AF cyclic peptide Reagent A; read-out: IC50
T1 sequence (Q8NBP7 153-692): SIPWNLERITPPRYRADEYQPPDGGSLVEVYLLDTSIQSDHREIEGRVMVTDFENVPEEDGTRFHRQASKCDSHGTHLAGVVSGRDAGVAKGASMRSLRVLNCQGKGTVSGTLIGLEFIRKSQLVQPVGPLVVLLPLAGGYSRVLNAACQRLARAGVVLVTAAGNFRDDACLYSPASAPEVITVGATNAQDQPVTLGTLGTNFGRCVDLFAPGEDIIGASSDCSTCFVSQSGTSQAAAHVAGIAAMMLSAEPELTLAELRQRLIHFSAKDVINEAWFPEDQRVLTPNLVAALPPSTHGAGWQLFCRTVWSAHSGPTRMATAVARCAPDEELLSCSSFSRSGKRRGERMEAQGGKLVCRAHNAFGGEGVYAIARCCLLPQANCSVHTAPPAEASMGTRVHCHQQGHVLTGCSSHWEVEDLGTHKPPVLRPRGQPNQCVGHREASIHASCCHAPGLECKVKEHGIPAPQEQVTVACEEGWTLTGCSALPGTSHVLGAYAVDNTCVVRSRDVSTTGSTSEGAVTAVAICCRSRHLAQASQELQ
Method in brief: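 TR-FRET displacement: 0.5 nM biotinylated PCSK9 with 1.25 nM Strep-Eu and 20 nM AlexaFluor-tagged cyclic peptide (final) in 50 mM HEPES pH 7.4, 0.15 M NaCl, 5 mM CaCl2, 0.01% BSA, 0.01% P20, ≥2 h at room temperature. IC50 from sigmoidal fit, converted to Ki via peptide KD; falling Eu counts flagged false positives.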

PCSK9 [2] = molecular target: T1, PCSK9; experiment: PCSK9 Alexa FRET Plus assay (displacement of AlexaFluor647 tagged cyclic peptide Reagent B); type: binding; conditions: Alexa FRET Plus, 0.5 nM PCSK9, 960 nM AF cyclic peptide Reagent B; read-out: IC50
Method: A solution containing 1 nM biotinylated PCSK9+2.5 nM Lance Streptavidin Europium (Strep-Eu) was made in 50 mM HEPES pH 7.4, 0.15 M NaCl, 5 mM CaCl2), 0.01% BSA, and 0.01% Surfactant P20. A separate solution containing 1920 nM of the AlexaFluor tagged cyclic peptide was made in the same buffer system. An Echo was used to transfer 0.075 ul of compound plus 0.675 ul of DMSO to each well of an assay plate followed by the addition of 15 ul of PCSK9+Stept-Eu and 15 ul of AF peptide. The final assay volume was 30.750 ul containing 0.5 nM PCSK9, 1.25 nM Strep-Eu, and 960 nM AF cyclic peptide. The reaction was incubated at room temperature for at least two hours prior to fluorescence measurements using an Envision Multilabel Reader. IC50 values were determined by fitting data to a sigmoidal dose-response curve using nonlinear regression. Ki was then calculated from the IC50 and the KD of AF cyclic peptide. Counts (B-counts) of the europium-labeled PCSK9 were followed to observe if compounds were adversely affecting PCSK9. A fall off of the B-counts likely indicated a false positive of inhibition. Data from this procedure was reported as “P=‘numerical value’ (nanomolar)”

Compound | IC50 (PCSK9 [1]) [nM] | IC50 (PCSK9 [2]) [nM]
CCCCCCCCCCCCCCCC(=O)N[C@@H](CCC(=O)NCCOCCOCC(=O)NCCOCCOCC(=O)NCCCC[C@@H]1NC(=O)CCSCc2cccc(c2)CSC[C@@H](C(N)=O)NC(=O)[C@]2(C)CCCN2C(=O)[C@H](Cc2ccc(O)cc2)NC(=O)[C@H](Cc2cnc[nH]2)NC(=O)[C@H](CC(=O)O)NC(=O)[C@H](Cc2c[nH]c3ccc(F)cc23)NC(=O)[C@H](Cc2c[nH]c3ccc(F)cc23)NC(=O)[C@@H](C)NC1=O)C(=O)O [Compound 456] ([Mpa]K([AEEA-AEEA-γGlu-Palmitoyl])[dA][Trp(5-F)][Trp(5-F)]DHY[αMeP]C-NH2; linker 1-10 via mXylylene) | 21000 to 50000 | 500 to 5000
C[C@@]12CCCN1C(=O)[C@H](Cc1ccc(O)cc1)NC(=O)[C@H](Cc1cnc[nH]1)NC(=O)[C@H](CC(=O)O)NC(=O)[C@H](Cc1c[nH]c3ccc(F)cc13)NC(=O)[C@H](Cc1c[nH]c3ccc(F)cc13)NC(=O)CNC(=O)[C@H](CCCCNC(=O)CCOCCOCCOCCOCCN)NC(=O)CCSCc1cccc(c1)CSC[C@@H](C(N)=O)NC2=O [Compound 485] ([Mpa]K(PEG4)G[Trp(5-F)][Trp(5-F)]DHY[αMeP]C-NH2; linker 1-10 via mXylylene) | 0.11 to 100 | 0.1 to 100
COc1ccc(C[C@@H]2NC(=O)[C@H](Cc3ncc[nH]3)NC(=O)[C@H](CC(=O)O)NC(=O)[C@H](Cc3c[nH]c4ccc(F)cc34)NC(=O)[C@H](Cc3c[nH]c4ccc(F)cc34)NC(=O)[C@@H](C)NC(=O)[C@H](CCCCN(C)C)NC(=O)CCSCc3cc(F)cc(c3)CSCCNC(=O)[C@]3(C)CCCN3C2=O)cc1 [Compound 466] (cyclo(D[Ala(imidazol-2-yl)]Y(Me)[αMeP][X3][Lys(Me2)][dA][Trp(5-F)][Trp(5-F)])) | 100 to 1000 | 500 to 5000
COc1ccc(C[C@@H]2NC(=O)[C@H](Cc3cnc[nH]3)NC(=O)[C@H](CC(=O)O)NC(=O)[C@H](Cc3c[nH]c4ccc(F)cc34)NC(=O)[C@H](Cc3c[nH]c4ccc(F)cc34)NC(=O)[C@@H](C)NC(=O)CCCCC(=O)NCc3ccc(cc3)C[C@@H](C(N)=O)NC(=O)[C@]3(C)CCCN3C2=O)cc1 [Compound 419] ([dA][Trp(5-F)][Trp(5-F)]DHY(Me)[αMeP][Phe(4-CH2NH2)]-NH2; linker N-8 via Adipoyl) | 100 to 1000 | 500 to 5000
CCC(=O)N[C@H]1CC(=O)NCCOc2ccc(cc2)C[C@@H](C(N)=O)NC(=O)[C@]2(C)CCCN2C(=O)[C@H](Cc2ccc(OC)cc2)NC(=O)[C@H]([C@@H](C)O)NC(=O)[C@@H]2C[C@H](F)CN2C(=O)[C@H](Cc2c[nH]c3ccc(F)cc23)NC(=O)[C@H](Cc2c[nH]c3ccc(F)cc23)NC(=O)[C@@H](C)NC(=O)[C@H](CCCCN)NC1=O [Compound 118] (Propionyl-DK[dA][Trp(5-F)][Trp(5-F)][Pro(cis-4-F)]TY(Me)[αMeP][AEF]-NH2; lactam 1-10) | 21000 to 50000 | 500 to 5000
CCCCCCCCCCCCCCCC(=O)N[C@@H](CCC(=O)NCCOCCOCC(=O)NCCOCCOCC(=O)NCCCC[C@H](NC(=O)CCCCCCCCCCNC(=O)[C@@H]1CSCc2cccc(c2)CSCCC(=O)N[C@@H](CCCCN)C(=O)N[C@H](C)C(=O)N[C@@H](Cc2c[nH]c3ccc(F)cc23)C(=O)N[C@@H](Cc2c[nH]c3ccc(F)cc23)C(=O)N[C@@H](CC(=O)O)C(=O)N[C@@H](Cc2cnc[nH]2)C(=O)N[C@@H](Cc2ccc(O)cc2)C(=O)N2CCC[C@@]2(C)C(=O)N1)C(N)=O)C(=O)O [Compound 479] ([Mpa]K[dA][Trp(5-F)][Trp(5-F)]DHY[αMeP]C[Aun]K([AEEA-AEEA-γGlu-Palmitoyl])-NH2; linker 1-10 via mXylylene) | 0.11 to 100 | 500 to 5000
CCCCCCCCCCCCCCCC(=O)N[C@@H](CCC(=O)NCCOCCOCC(=O)NCCOCCOCC(=O)NCCCC[C@H](NC(C)=O)C(=O)NCCOCCOCCOCCOCCOCCOCCOCCOCCOCCOCCOCCOCCC(=O)N[C@@H]1CSCc2cccc(c2)CSC[C@@H](C(N)=O)NC(=O)[C@]2(C)CCCN2C(=O)[C@H](Cc2ccc(O)cc2)NC(=O)[C@H]([C@@H](C)O)NC(=O)N2C[C@@H](F)C[C@H]2C(=O)[C@H](Cc2c[nH]c3ccc(F)cc23)NC(=O)[C@H](Cc2c[nH]c3ccc(F)cc23)NC(=O)[C@@H](C)NC(=O)[C@H](C)NC1=O)C(=O)O [Compound 136] | 0.11 to 100 | 0.1 to 100
NC(=O)[C@@H]1Cc2cccc(c2)CNC(=O)CCCC(=O)NCC(=O)N[C@@H](Cc2c[nH]c3ccc(F)cc23)C(=O)N[C@@H](Cc2c[nH]c3ccc(F)cc23)C(=O)N[C@@H](CC(=O)O)C(=O)N[C@@H](Cc2ncc[nH]2)C(=O)N[C@@H](Cc2ccc(O)cc2)C(=O)N1 [Compound 458] (G[Trp(5-F)][Trp(5-F)]D[Ala(imidazol-2-yl)]Y[Phe(3-CH2NH2)]-NH2; linker N-7 via Glutaryl) | 21000 to 50000 | 500 to 5000

— US11530244B2, “Cyclic polypeptides for PCSK9 inhibition” (priority 2018, dated 2022)
